Laboratory results published in patent US20140121235A1, “Method for Treating S6K-Overexpressing Cancers” (Rush University Medical Center, priority 2012, published 2014).

Experiments:
A375 cells = assay: Cell proliferation assay (ATP-based Cell-Glo); conditions: for inhibitory effect of A77 1726 blocked by uridine: exogenous uridine
Protocol: A375 cells were seeded in 96-well plates (2000 cells/well) and incubated the indicated concentrations of A77 1726 for 72 hr in the absence or presence of various concentrations PLX4720 (A, C) with or without uridine (200 μM) (B, D). Cell proliferation was analyzed by an ATP-based Cell-Glo assay. One representative of three experiments with similar results was shown. *p<0.01.
A375 cells were grown in complete RPMI 1640 medium supplemented with 10% fetal bovine serum. The cells were seeded in 96-well plates at the density of 2,000/well in the absence or presence of various concentrations of A77 1726, PLX4720, or uridine (200 μM). After incubation for 72 hr, cell proliferation was monitored by using an ATP-based Cell-Glo assay (Promegan, Madison, Wis.) following the manufacturer's instruction.

[1] = system: ribosomal protein S6^S235/S236 phosphorylation; assay: Western blot of S6 phosphorylation in A375 cells; format: cell-based
Protocol: (§1) A375 cells seeded in a 6-well plate were starved in DMEM medium containing 0.5% FBS for 2 hr and treated with the indicated concentration of A77 1726 or PLX 4720 (1 μM) for another 2 hr (A) or treated with A77 1726 (100 μM) for the indicated time (B & C). Cells were harvested and analyzed for protein phosphorylation by specific antibodies as indicated. Protein loading was monitored by stripping membrane and re-probing with antibodies against non-phosphorylated proteins. […] A375 cells seeded in a 6-well plate were starved in DMEM medium containing 05% FBS for 2 hr and treated with the indicated concentration of A77 1726 in the absence or presence of uridine (200 μM). Phosphorylated and total proteins were analyzed by Western blot as described above.
(§2) A375 cells seeded in 6-well plates were starved in DMEM medium containing 0.5% FBS for 2 hr and then pre-treated with vehicle (0.1% dimethyl sulfoxide), LY294002 (10 μM) (A), PPP (1 μM) (B), or the inhibitors of the MAP kinase pathway (PLX4720, 1 μM; U0126, 10 μM; PD98059, 10 μM) (C) for 1 hr. Cells were then treated with A77 1726 (100 μM) or rapamycin (20 nM) as indicated for 2 hr. Cells were harvested and analyzed for protein phosphorylation by specific antibodies as indicated. Protein loading was monitored by stripping membrane and re-probing with antibodies against non-phosphorylated proteins.
(§3) Cells grown in 6-well plates were harvested and lysed in NP-40 lysis buffer (50 mM Tris-HCI (pH 8.0), 150 mM NaCl, 1% NP-40, 5 mM EDTA, 10 μg/ml aprotinin, 10 μg/ml leupeptin, and 1 mM phenylmethylsulfonyl fluoride). After incubation on ice for 30 min, the cell lysates were prepared by spinning down at 4° C., 15,000 rpm for 15 min. After electrophoresis and transfer to Immobolin membrane, proteins of interest were probed with their specific antibodies, followed by horseradish peroxidase-conjugated goat anti-rabbit IgG and SuperSignal Western Pico enhanced chemiluminoscence substrate (Pierce Chemical Co., Rockford, Ill.).
(§4) The PI-3 and MAP kinase pathways play an important role in cell proliferation, differentiation, and cell cycle progress. Multiple genes in these two pathways are frequently mutated and have a commanding role in driving tumorigenesis and tumor cell proliferation (2; 3). […] Here we tested whether A77 1726 affected the activation of MAP and PI-3 kinase pathways. A375 cells grown in 6-well plates were starved in the media containing 0.5% FBS for 2 hr and then treated with the indicated concentration of A77 1726. […] We next explored the effect of A77 1726 in phosphorylation of the molecules in the PI-3 kinase pathway.

[2] = system: AKT^S473 and S6K1^T389 phosphorylation; assay: Western blot of PI-3 kinase pathway phosphorylation in A375 cells; format: cell-based; conditions: A375 cells, dose-dependent
Protocol: as §1, §2, §3, §4

[3] = system: carbomoyl-phosphate synthetase 2 (CAD) Ser-1859 phosphorylation; assay: CAD phosphorylation in A375 cells (phosphor-specific antibody); format: cell-based; conditions: A375 cells, 0, 50, 100 or 200 μM for 2 hours
Protocol: FIG. 12 illustrates inhibition of carbamoyl-phosphate synthetase 2 (CAD) by A 77 1726.
The ability of […] to inhibit phosphorylation of CAD at the Ser-1859 site was tested. A375 melanoma tumor cell line cultures were pretreated with the 0, 50, 100 or 200 μM A 771726 for 2 hours. Total cell lysates were prepared and analyzed for the phosphorylation of CAD by a phosphor-specific antibody.

C/C(O)=C(\C#N)C(=O)Nc1ccc(C(F)(F)F)cc1 [A77 1726]
inhibitory effect of A77 1726 blocked by uridine (A375 cells; A77 1726 at 200 μM): about 20% | inhibitory effect of A77 1726 blocked by uridine (A375 cells; A77 1726 at 50 or 100 μM): 80% | IC50 (A375 cells; Homo sapiens, A-375, 72 hr, read-out: IC50, inhibition of A375 proliferation): ~65 µM | effect on S6^S235/S236 phosphorylation ([1]; A375 cells, A77 1726 dose-dependent or 100 μM, rapamycin 20 nM, PPP 1 μM): inhibited | IC50 ([1]; Homo sapiens, A-375, read-out: IC50 to inhibit S6 phosphorylation in cell culture): 50 to 75 µM | effect on AKT^S473 and S6K1^T389 phosphorylation [2]: strongly induced | effect on CAD phosphorylation at Ser-1859 [3]: inhibited phosphorylation in a dose-dependent manner
